Assay results taken from US6713477B1, “Hydroxamic acid derivatives” (Sumitomo Pharmaceuticals Company, Limited, priority 2000, dated 2004).

What was measured:
[1] = target: T1, MMP-3 (Matrix Metalloproteinase-3, Stromelysin-1) (Homo sapiens, UniProt P08254); experiment: Inhibition assay against MMP-3 (fluorescent MCA-labeled substrate); format: biochemical; conditions: Table 10; active MMP at 20 nM, 37° C., 1.5 hours; read-out: IC50 MMP3
T1 construct: C-terminal truncated form of human prostromelysin cDNA; made in house; host or cells: E. coli
T1 sequence (P08254 100-272 limits assumed): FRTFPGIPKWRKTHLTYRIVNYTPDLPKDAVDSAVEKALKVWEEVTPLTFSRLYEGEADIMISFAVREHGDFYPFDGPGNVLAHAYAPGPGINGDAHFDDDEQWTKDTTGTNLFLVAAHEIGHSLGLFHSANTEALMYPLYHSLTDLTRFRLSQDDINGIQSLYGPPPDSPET
Procedure: C-terminal truncated form of human prostromelysin cDNA (proMMP-3, cDNA sequence in Nature, 348, 699-704 (1990)) was subcloned, expressed in E.coli and purified as described previously (Biochemistry 30, 6476-6483 (1991)). Activation of proMMP-3 was achieved by treatment with 1 mM 4-aminophenylmercuric acetate at 37° C. for 60 min.
(§1) Enzymatic assays were performed in accordance with C. G. Knight's method (FEBS Lett., 296(3), 263-266 (1992)). The fluorescent MCA-labeled substrate, (7-methoxycumaline-4-yl)-Pro-Leu-Gly-Leu-L-[N-(2,4-dinitrophenyl)-L-2,3-diaminopropionyl]-Ala-Arg-NH2 (Peptide Institute. Inc.) was used for measuring the kinetics of inhibition for each tested compound.
(§2) The substrate was incubated at 37° C. for 1.5 hours (MMP-1; for 24 hours) with active MMP (at 20 nM, except MMP-13 at 5 nM) and a test compound in assay buffer containing 100 mM Tris-HCl (pH7.5), 10 mM CaCl2, 100 MM NaCl and 0.05% Brij-35.

[2] = target: T2, MMP-13 (Matrix Metalloproteinase-13, Collagenase-3) (Homo sapiens, UniProt P45452); experiment: Inhibition assay against MMP-13 (fluorescent MCA-labeled substrate); format: biochemical; conditions: Table 10; active MMP-13 at 5 nM, 37° C., 1.5 hours; read-out: IC50 MMP13
T2 construct: made in house; host or cells: E. coli BL21 (DE3), pET11a
Source text: To subclone C-terminal truncated form of procollagenase-3 (proMMP-13) cDNA (J.Biol.Chem., 269(24), 16766-16773 (1994)), two synthetic oligonucleotide primer (5′-[…]-3′ and 5′-[…]-3′: the former incorporates sequences for a unique NdeI site (underlined) including initial methionine, and the latter has sequences for a stop codon and BamHI site (underlined)) were used with human chondrocyte cDNA library (CLONTECH) in PCR. With these primers and Pfu DNA polymerase (STRATAGENE) in PCR, 767 bp fragment was generated, which encodes 84 amino acid prosequence and 164 amino acids of mature MMP-13. The fragment was digested with NdaI and BamHI, ligated into the NdeI and BamHI sites of pET11a (STRATAGENE), transformed in E.coli BL21 (DE3) and cultured. The crude cell extract was prepared as described in Biochemistry. The extract was dialyzed against 20 mM Tris-HCl(pH7.2)/5 mM CaCl2/0.02% NaN3 and applied to a SP-Sepharose HP column (1.6×10 cm, Amersham-Pharmacia Biotech), and elution was performed with 50 mL linear gradient of 0 to 0.3 M NaCl (partially purified proMMP-13 was eluted at 0.2 M approximately). The fraction was dialyzed against 20 mM Tris-HCl(pH7.9)/5 mM CaCl2,/200 mM (NH4)2SO4/0.02% NaN3 and applied to a Phenyl Sepharose HP column (1.6×5 cm, Amersham-Pharmacia Biotech), and elution was performed with 20 mL linear gradient of 0.2 to 0 M (NH4)2SO4 (pure proHMP-13 was eluted at 50 mM approximately). The fraction was concentrated by YM-5 ultrafiltration membrane and activated with 4-aminophenylmercuric acetate and active MMP-13 was separated from propeptide fragments by gel filtration chromatography as described in Biochemistry.
as §1, §2

Compound | IC50 [1] [nM] | IC50 [2] [nM]
COc1ccc(C2SC(CC(=O)NCc3ccco3)C(=O)N2C(Cc2ccc(OC(C)(C)C)cc2)C(=O)NO)cc1 (stereo not shown) [Example 333] | 794 | 70
COCCNC(=O)CC1SC(c2ccc(Cl)cc2)N(C(Cc2ccc(OC(C)(C)C)cc2)C(=O)NO)C1=O (stereo not shown) [Example 316] | 442 | 26
O=C(CN1C(=O)C(Cc2ccc(Oc3ccccc3)cc2)Sc2ccccc21)NO (stereo not shown) [Example 409] | 279 | 12
COc1ccc(C2SC(CC(=O)NC3CCCCC3)C(=O)N2C(CC(C)C)C(=O)NO)cc1 (stereo not shown) [Example 239] | 274 | 35
COc1cccc(C2SC(CC(=O)NO)C(=O)N2CCc2ccc(O)cc2)c1OC (stereo not shown) [Example 19] | 1000 | > 50000
COc1ccc(C2SCC(=O)N2C(CCSC)C(=O)NO)cc1F (stereo not shown) [Example 71] | 9070 | 249
CC(C)CC(C(=O)NO)N1C(=O)CSC1c1ccc(-c2cc(C(F)(F)F)nn2C)s1 (stereo not shown) [Example 88] | 3800 | 62
COc1ccc(/C=C2\Sc3cc(Cl)ccc3N(CC(=O)NO)C2=O)cc1 [Example 370] | 1200 | 35
CCCN(CCC)C(=O)CC1SC(c2ccc(Cl)cc2)N(C(CC(C)C)C(=O)NO)C1=O (stereo not shown) [Example 306] | 987 | 122
COc1ccc(CC2Sc3cc(C(=O)N[C@H](CO)CC(C)C)ccc3N(CC(=O)NO)C2=O)cc1 (stereo partly shown) [Example 865] | 53 | 4.9
Cc1cc(NC(=O)CC2SC(c3ccc(Cl)cc3)N(C(Cc3ccc(OC(C)(C)C)cc3)C(=O)NO)C2=O)no1 (stereo not shown) [Example 255] | 1200 | 106
COCCNC(=O)CC1C(=O)N(C(CC(C)C)C(=O)NO)C(c2ccc(Oc3ccc(Cl)cc3)cc2)[S+]1[O-] (stereo not shown) [Example 740] | 459 | 12
COc1ccc(C2SC(CC(=O)NCc3cccnc3)C(=O)N2C(Cc2ccccc2)C(=O)NO)cc1 (stereo not shown) [Example 211] | 895 | 108
O=C(CN1C(=O)C(Cc2ccc(Br)cc2)Sc2ccccc21)NO (stereo not shown) [Example 426] | 375 | 38
O=C(CN1C(=O)C(Cc2ccc(-c3ccccc3)cc2)Sc2ccccc21)NO (stereo not shown) [Example 419] | 514 | 63
COc1ccc(CC2Sc3ccccc3N([C@H](C)C(=O)NO)C2=O)cc1 (stereo partly shown) [Example 438] | 1660 | 375
COc1ccc(CC2Sc3cc(C)c(C)cc3N(CC(=O)NO)C2=O)cc1 (stereo not shown) [Example 431] | 238 | 13
CCCC(C(=O)NO)N1C(=O)CSC1c1ccc(Oc2ccccc2)cc1 (stereo not shown) [Example 143] | 1270 | 64
CCCNC(=O)CC1SC(c2ccc(Cl)cc2)N(C(Cc2ccc(OC(C)(C)C)cc2)C(=O)NO)C1=O (stereo not shown) [Example 283] | 614 | 37
COc1ccc(C2SC(CC(=O)NO)C(=O)N2CCCc2ccccc2)cc1 (stereo not shown) [Example 13] | > 50000 | 13200
CC(C)CC(C(=O)NO)N1C(=O)C(CC(=O)NCc2ccco2)[S+]([O-])C1c1ccc(Oc2ccc(Cl)cc2)cc1 (stereo not shown) [Example 739] | 301 | 17
O=C(CN1C(=O)C(Cc2ccc(O)cc2)Sc2ccccc21)NO (stereo not shown) [Example 406, 2H-2-(4-Hydroxybenzyl)-1,4-benzothiazin-3(4H)-one-4-yl-acetic Acid N-Hydroxyamide] | 3230 | 257
O=C(CN1C(=O)/C(=C/c2ccc(-c3ccc(Br)cc3)o2)Sc2ccccc21)NO [Example 389] | > 50000 | 29000
C=CCNC(=O)CC1SC(c2ccc(Cl)cc2)N(C(CC(C)C)C(=O)NO)C1=O (stereo not shown) [Example 262] | 850 | 66
CC(C)CC(C(=O)NO)N1C(=O)CSC1c1ccc(Cl)cc1 (stereo not shown) [Example 130] | 1140 | 56

Compound | IC50 [1] [nM] | IC50 [2] [nM]
CCC(C)C(C(=O)NO)N1C(=O)CSC1c1ccc(OC)c(F)c1 (stereo not shown) [Example 175] | 1140 | 112
COc1cccc(C2SC(CC(=O)NO)C(=O)N2CC(Cl)CCCCl)c1[N+](=O)[O-] (stereo not shown) [Example 10] | 31600 | 5300
COc1ccc(C2SC(CC(=O)Nc3ccccn3)C(=O)N2C(Cc2ccc(OC(C)(C)C)cc2)C(=O)NO)cc1 (stereo not shown) [Example 361] | 446 | 53
COC(C)(C)NC(=O)CC1SC(c2ccc(Cl)cc2)N(C(Cc2ccc(OC(C)(C)C)cc2)C(=O)NO)C1=O (stereo not shown) [Example 257] | 267 | 23
CC(C)CC(C(=O)NO)N1C(=O)C(CC(=O)NCc2ccco2)SC1c1ccc(Cl)cc1 (stereo not shown) [Example 218] | 422 | 56
CNC(=O)CC1SC(c2ccc(OC)cc2)N(C(Cc2ccc(OC(C)(C)C)cc2)C(=O)NO)C1=O (stereo not shown) [Example 324] | 733 | 63
CCCCC(C(=O)NO)N1C(=O)CSC1c1cc2ccccc2o1 (stereo not shown) [Example 195] | 1890 | 119
COc1ccc(C2SCC(=O)N2C(COC(C)(C)C)C(=O)NO)cc1 (stereo not shown) [Example 105] | 6720 | 231
CCCCC#Cc1ccc(C2SCC(=O)N2C(CC(C)C)C(=O)NO)cc1 (stereo not shown) [Example 42] | > 10000 | 759
COc1ccc(C2SC(CC(=O)NCCCN3CCCCC3C)C(=O)N2C(Cc2ccc(OC(C)(C)C)cc2)C(=O)NO)cc1 (stereo not shown) [Example 330] | 745 | 66
COc1ccc(NC(=O)CC2Sc3ccccc3N(CC(=O)NO)C2=O)cc1 (stereo not shown) [Example 441, 2H-2-[N′-(4-Methoxyphenyl)-carbamoylmethyl]-1,4-benzothiazin-3(4H)-one-4-yl-acetic Acid N-Hydroxylamide] | 2960 | 118
CCN(CC)c1ccc(CC2Sc3ccccc3N(CC(=O)NO)C2=O)cc1 (stereo not shown) [Example 422] | > 10000 | 4810
COc1ccc(CC2Sc3cccc(Cl)c3N(CC(=O)NO)C2=O)cc1 (stereo not shown) [Example 429] | 5620 | 3600
COc1ccc(C2SC(CC(=O)NC(C)C)C(=O)N2C(Cc2ccccc2)C(=O)NO)cc1 (stereo not shown) [Example 479] | 270 | 19
O=C(CN1C(=O)/C(=C/c2ccccc2)Sc2ccccc21)NO [Example 388] | 23000 | 1600
COc1ccc(/C=C2\Sc3ccc(C(F)(F)F)cc3N(CC(=O)NO)C2=O)cc1 [Example 371] | 880 | 36
COc1ccc(C2SCC(=O)N2C(Cc2ccc(OC(C)(C)C)cc2)C(=O)NO)cc1 (stereo not shown) [Example 109] | 599 | 43
Cc1ccc(CC2Sc3ccccc3N(CC(=O)NO)C2=O)cc1 (stereo not shown) [Example 407, 2H-2-(4-Methylbenzyl)-1,4-benzothiazin-3(4H)-one-4-yl-acetic acid N-hydroxyamide] | 433 | 24
O=C(CN1C(=O)C(Cc2cccnc2)Sc2ccccc21)NO (stereo not shown) [Example 423] | 5130 | 1220
COc1ccc(CC2Sc3ccccc3N([C@H](C(=O)NO)C(C)C)C2=O)cc1 (stereo partly shown) [Example 436] | 938 | 671
CCC(C)C(C(=O)NO)N1C(=O)CSC1c1ccc(SC)cc1 (stereo not shown) [Example 176] | 1060 | 100
O=C(NO)C(Cc1c[nH]c2ccccc12)N1C(=O)CSC1c1ccc(Cl)cc1 (stereo not shown) [Example 121] | 2550 | 128
O=C(CN1C(=O)C(=Cc2ccccn2)Sc2ccccc21)NO [Example 378] | > 50000 | 16000
CC(C)CC(C(=O)NO)N1C(=O)CSC1c1ccc(-c2ccc(Cl)cc2)o1 (stereo not shown) [Example 46] | 894 | 134
COCCCNC(=O)CC1SC(c2ccc(OC)cc2)N(C(Cc2ccc(OC(C)(C)C)cc2)C(=O)NO)C1=O (stereo not shown) [Example 329] | 155 | 11
